From patent publication US8148391B2 (Cephalon, Inc., priority 2006, dated 2012)

The compounds below were run against T1, baculovirus-expressed ALK (Homo sapiens, UniProt Q9UM73) (assay: ALK Kinase Assay (ELISA-type, time-resolved fluorescence)). Settings: 1 μM ATP (Km level), 30 ng/ml ALK, 37° C., 15 minutes; read-out: ALK Activity (ALK kinase inhibition, IC50 class).
T1 construct: host or cells: baculovirus expression system
Assay type: biochemical
Experimental: Briefly, each 96-well plate was coated with 100 μL/well of 10 μg/mL substrate (phospholipase C-γ) in Tris-buffered saline (TBS). […] The reaction was initiated by adding enzyme (30 ng/ml ALK) and was allowed to proceed at 37° C. for 15 minutes. Detection of the phosphorylated product was performed by adding 100 μl/well of Eu-N1 labeled PT66 antibody (Perkin Elmer # AD0041).
Data analysis was performed using ActivityBase (IDBS, Guilford, UK). IC50 values were calculated by plotting percent inhibition versus log10 of the concentration of compound and fitting to the nonlinear regression sigmoidal dose-response (variable slope) equation in XLFit (IDBS, Guilford, UK).

T1 sequence (Q9UM73 19-1620): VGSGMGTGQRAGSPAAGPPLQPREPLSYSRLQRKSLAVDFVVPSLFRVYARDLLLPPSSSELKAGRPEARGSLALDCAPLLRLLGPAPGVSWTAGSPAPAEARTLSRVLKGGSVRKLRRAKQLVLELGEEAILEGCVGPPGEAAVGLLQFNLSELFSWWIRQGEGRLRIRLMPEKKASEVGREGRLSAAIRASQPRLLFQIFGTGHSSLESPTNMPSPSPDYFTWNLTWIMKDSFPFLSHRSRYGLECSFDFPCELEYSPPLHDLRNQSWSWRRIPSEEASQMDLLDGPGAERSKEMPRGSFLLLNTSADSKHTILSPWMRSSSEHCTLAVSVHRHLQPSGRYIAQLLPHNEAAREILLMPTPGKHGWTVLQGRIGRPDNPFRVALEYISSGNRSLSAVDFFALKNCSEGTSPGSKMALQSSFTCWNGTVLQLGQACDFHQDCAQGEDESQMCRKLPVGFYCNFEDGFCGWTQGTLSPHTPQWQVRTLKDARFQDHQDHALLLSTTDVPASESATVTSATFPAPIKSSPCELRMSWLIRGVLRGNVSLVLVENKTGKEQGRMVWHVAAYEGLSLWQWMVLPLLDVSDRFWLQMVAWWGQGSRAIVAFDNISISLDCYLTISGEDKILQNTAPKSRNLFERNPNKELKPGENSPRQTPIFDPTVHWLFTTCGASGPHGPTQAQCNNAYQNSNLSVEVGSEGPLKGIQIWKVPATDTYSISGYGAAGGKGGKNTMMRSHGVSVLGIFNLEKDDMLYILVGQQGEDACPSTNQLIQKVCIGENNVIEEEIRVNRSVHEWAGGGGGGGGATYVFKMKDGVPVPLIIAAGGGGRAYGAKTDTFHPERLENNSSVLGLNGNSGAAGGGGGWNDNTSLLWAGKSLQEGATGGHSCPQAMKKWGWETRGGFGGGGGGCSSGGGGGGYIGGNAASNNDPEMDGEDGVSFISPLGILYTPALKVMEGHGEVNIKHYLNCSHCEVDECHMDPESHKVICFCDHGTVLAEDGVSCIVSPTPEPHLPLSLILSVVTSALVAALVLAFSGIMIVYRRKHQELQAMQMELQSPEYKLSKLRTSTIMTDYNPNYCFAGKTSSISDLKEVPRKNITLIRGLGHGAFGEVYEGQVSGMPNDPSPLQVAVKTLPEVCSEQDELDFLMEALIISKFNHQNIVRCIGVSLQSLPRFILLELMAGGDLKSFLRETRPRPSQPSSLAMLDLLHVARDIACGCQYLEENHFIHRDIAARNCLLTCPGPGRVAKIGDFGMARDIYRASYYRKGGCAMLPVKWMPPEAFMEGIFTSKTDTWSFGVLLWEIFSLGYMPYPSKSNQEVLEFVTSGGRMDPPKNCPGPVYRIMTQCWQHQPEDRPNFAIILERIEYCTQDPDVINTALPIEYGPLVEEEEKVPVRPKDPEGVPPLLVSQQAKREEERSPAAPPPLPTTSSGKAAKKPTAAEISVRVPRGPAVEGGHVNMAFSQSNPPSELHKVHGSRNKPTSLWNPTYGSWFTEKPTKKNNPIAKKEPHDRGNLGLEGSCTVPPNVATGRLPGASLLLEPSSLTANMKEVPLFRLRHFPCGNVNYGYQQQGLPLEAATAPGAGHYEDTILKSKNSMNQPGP

`CCCCNC(=O)c1ccccc1Nc1nc(Nc2ccc3c(c2)CCCC(=O)N3C)ncc1Cl` [Example 1030, N-Butyl-2-[5-chloro-2-(1-methyl-2-oxo-2,3,4,5-tetrahydro-1H-benzo[b]azepin-7-ylamino)-pyrimidin-4-ylamino]-benzamide] and `CCCNC(=O)c1ccccc1Nc1nc(Nc2ccc3c(c2)CCCC(=O)N3C)ncc1Cl` [Example 1025, 2-[5-Chloro-2-(1-methyl-2-oxo-2,3,4,5-tetrahydro-1H-benzo[b]azepin-7-ylamino)-pyrimidin-4-ylamino]-N-propyl-benzamide] cannot be ordered by IC50: < 100 nM for the first, < 100 nM for the second.

`CCOC(=O)N1CCCOc2cc(Nc3ncc(Cl)c(Nc4c(F)cccc4C(=O)NC)n3)ccc21` [Example 1417, 3-[5-Chloro-4-(2-fluoro-6-methylcarbamoyl-phenylamino)-pyrimidin-2-ylamino]-7,8-dihydro-6H-5-oxa-9-aza-benzocycloheptene-9-carboxylic acid ethyl ester] and `CCOC(=O)N1CCCOc2ccc(Nc3ncc(Cl)c(Nc4c(F)cccc4C(=O)NC)n3)cc21` [Example 1410, 2-[5-Chloro-4-(2-fluoro-6-methylcarbamoyl-phenylamino)-pyrimidin-2-ylamino]-7,8-dihydro-6H-5-oxa-9-aza-benzocycloheptene-9-carboxylic acid ethyl ester] fall in the same range of IC50: 100 to 1000 nM for the first, 100 to 1000 nM for the second.

Compared with `CNC(=O)c1cccc(F)c1Nc1nc(Nc2ccc3c(c2)NC(=O)C(N)CC3(C)C)ncc1Cl` (stereo not shown) [Example 1272, 2-[2-(3-Amino-5,5-dimethyl-2-oxo-2,3,4,5-tetrahydro-1H-1-benzazepin-8-ylamino)-5-chloro-pyrimidin-4-ylamino]-3-fluoro-N-methyl-benzamide], `CNC(=O)c1cccc(F)c1Nc1nc(Nc2ccc3c(c2)NC(=O)C(NC(=O)COC)CC3(C)C)ncc1Cl` (stereo not shown) [Example 1292, 2-{5-Chloro-2-[3-(2-methoxy-acetylamino)-5,5-dimethyl-2-oxo-2,3,4,5-tetrahydro-1H-1-benzazepin-8-ylamino]-pyrimidin-4-ylamino}-3-fluoro-N-methyl-benzamide] is higher in IC50: < 100 nM for the first, 100 to 1000 nM for the second.

`CNC(=O)c1cccc(F)c1Nc1nc(Nc2ccc3c(c2)NC(=O)CCC3)ncc1Cl` [Example 1375, 2-[5-Chloro-2-(2-oxo-2,3,4,5-tetrahydro-1H-benzo[b]azepin-8-ylamino)-pyrimidin-4-ylamino]-3-fluoro-N-methyl-benzamide] and `CNC(=O)c1cccc(F)c1Nc1nc(Nc2ccc3c(c2)OCCCN3C(=O)OC)ncc1Cl` [Example 1431, 3-[5-Chloro-4-(2-fluoro-6-methylcarbamoyl-phenylamino)-pyrimidin-2-ylamino]-7,8-dihydro-6H-5-oxa-9-aza-benzocycloheptene-9-carboxylic acid methyl ester] fall in the same range of IC50: 100 to 1000 nM for the first, 100 to 1000 nM for the second.

`C#CCN(C)C(=O)c1ccccc1Nc1nc(Nc2ccc3c(c2)CCCC(=O)N3C)ncc1Cl` [Example 1390, [5-Chloro-2-(1-methyl-2-oxo-2,3,4,5-tetrahydro-1H-benzo[b]azepin-7-ylamino)-pyrimidin-4-ylamino]-N-methyl-N-prop-2-ynyl-benzamide] and `C#CCNC(=O)c1ccccc1Nc1nc(Nc2ccc3c(c2)CCCC(=O)N3C)ncc1Cl` [Example 1388, 2-[5-Chloro-2-(1-methyl-2-oxo-2,3,4,5-tetrahydro-1H-benzo[b]azepin-7-ylamino)-pyrimidin-4-ylamino]-N-prop-2-ynyl-benzamide] cannot be ordered by IC50: < 100 nM for the first, < 100 nM for the second.

`CNC(=O)c1cccc(F)c1Nc1nc(Nc2ccc3c(c2)OCCCN3C(=O)OCCCN(C)C)ncc1Cl` [Example 1426, 3-[5-Chloro-4-(2-fluoro-6-methylcarbamoyl-phenylamino)-pyrimidin-2-ylamino]-7,8-dihydro-6H-5-oxa-9-aza-benzocycloheptene-9-carboxylic acid 3-dimethylamino-propyl ester] was tested, and the IC50 was 100 to 1000 nM.

Same assay, conditions: ALK kinase inhibition, 1 μM ATP (Km level); read-out: ALK Activity

`CNC(=O)c1cccc(C)c1Nc1nc(Nc2ccc3c(c2)CCN(CCOC)CC3)ncc1Cl` [Example 313, 2-{5-Chloro-2-[3-(2-methoxy-ethyl)-2,3,4,5-tetrahydro-1H-benzo[d]azepin-7-ylamino]-pyrimidin-4-ylamino}-3,N-dimethyl-benzamide] and `CNC(=O)c1cccc(Cl)c1Nc1nc(Nc2ccc3c(c2)CCN(CCOC)CC3)ncc1Cl` [Example 312, 3-Chloro-2-{5-chloro-2-[3-(2-methoxy-ethyl)-2,3,4,5-tetrahydro-1H-benzo[d]azepin-7-ylamino]-pyrimidine-4-ylamino}-N-methyl-benzamide] fall in the same range of IC50: 100 to 1000 nM for the first, 100 to 1000 nM for the second.

`CNC(=O)c1cccc(C)c1Nc1nc(Nc2ccc3c(c2)C(C)(C)CCC(=O)N3)ncc1Cl` [Example 399, 2-[5-Chloro-2-(5,5-dimethyl-2-oxo-2,3,4,5-tetrahydro-1H-benzo[b]azepin-7-ylamino)-pyrimidin-4-ylamino]-3,N-dimethyl-benzamide] and `CNC(=O)c1cccc(Cl)c1Nc1nc(Nc2ccc3c(c2)C(C)(C)CCC(=O)N3)ncc1Cl` [Example 382, 3-Chloro-2-[5-chloro-2-(5,5-dimethyl-2-oxo-2,3,4,5-tetrahydro-1H-benzo[b]azepin-7-ylamino)-pyrimidin-4-ylamino]-N-methyl-benzamide] fall in the same range of IC50: 100 to 1000 nM for the first, 100 to 1000 nM for the second.

`CNC(=O)c1ccccc1Nc1nc(Nc2ccc3c(c2)CCN(CCOC)CC3)ncc1Cl` [Example 34, 2-{5-Chloro-2-[3-(2-methoxy-ethyl)-2,3,4,5-tetrahydro-1H-benzo[d]azepin-7-ylamino]-pyrimidin-4-ylamino}-N-methyl-benzamide] and `CNC(=O)c1cccc(F)c1Nc1nc(Nc2ccc3c(c2)N(CCOC)C(=O)CCC3)ncc1Cl` [Example 362, 2-{5-Chloro-2-[1-(2-methoxy-ethyl)-2-oxo-2,3,4,5-tetrahydro-1H-benzo[b]azepin-8-ylamino]-pyrimidin-4-ylamino}-3-fluoro-N-methyl-benzamide] cannot be ordered by IC50: < 100 nM for the first, < 100 nM for the second.

With `CN1C(=O)CCCc2cc(Nc3ncc(Cl)c(Nc4ccccc4C(N)=O)n3)ccc21` [Example 7, 2-[5-Chloro-2-(1-methyl-2-oxo-2,3,4,5-tetrahydro-1H-benzo[b]azepin-7-ylamino)-pyrimidin-4-ylamino]-benzamide] the IC50 was < 100 nM.

Same assay, conditions: ALK kinase inhibition, 1 μM ATP; read-out: ALK Activity

`CCN1C(=O)CCC(C)(C)c2ccc(Nc3ncc(Cl)c(Nc4c(F)cccc4C(=O)NC)n3)cc21` [Example 1576, 2-[5-Chloro-2-(1-ethyl-5,5-dimethyl-2-oxo-2,3,4,5-tetrahydro-1H-benzo[b]azepin-8-ylamino)-pyrimidin-4-ylamino]-3-fluoro-N-methyl-benzamide] and `CNC(=O)c1cccc(F)c1Nc1nc(Nc2ccc3c(c2)N(CCOC)C(=O)CCC3(C)C)ncc1Cl` [Example 1581, 2-{5-Chloro-2-[1-(2-methoxy-ethyl)-5,5-dimethyl-2-oxo-2,3,4,5-tetrahydro-1H-benzo[b]azepin-8-ylamino]-pyrimidin-4-ylamino}-3-fluoro-N-methyl-benzamide] cannot be ordered by IC50: < 100 nM for the first, < 100 nM for the second.

First: CCN1CCCOc2cc(Nc3ncc(Cl)c(Nc4c(F)cccc4C(=O)NC)n3)ccc21 [Example 1692, 2-[5-Chloro-2-(9-ethyl-6,7,8,9-tetrahydro-5-oxa-9-aza-benzocyclohepten-3-ylamino)-pyrimidin-4-ylamino]-3-fluoro-N-methyl-benzamide]
Second: CCN1CCCOc2ccc(Nc3ncc(Cl)c(Nc4c(F)cccc4C(=O)NC)n3)cc21 [Example 1697, 2-[5-Chloro-2-(9-ethyl-6,7,8,9-tetrahydro-5-oxa-9-aza-benzocyclohepten-2-ylamino)-pyrimidin-4-ylamino]-3-fluoro-N-methyl-benzamide]
The IC50 of the first is lower: < 100 nM for the first, 100 to 1000 nM for the second.

`CNC(=O)c1cccc(F)c1Nc1nc(Nc2ccc3c(c2)N(C(C)=O)CCCO3)ncc1Cl` [Example 1701, 2-[2-(9-Acetyl-6,7,8,9-tetrahydro-5-oxa-9-aza-benzocyclohepten-2-ylamino)-5-chloro-pyrimidin-4-ylamino]-3-fluoro-N-methyl-benzamide] and `CNC(=O)c1cccc(F)c1Nc1nc(Nc2ccc3c(c2)OCCCN3C(=O)COC)ncc1Cl` [Example 1726, 2-{5-Chloro-2-[9-(2-methoxy-acetyl)-6,7,8,9-tetrahydro-5-oxa-9-aza-benzocyclohepten-3-ylamino]-pyrimidin-4-ylamino}-3-fluoro-N-methyl-benzamide] fall in the same range of IC50: 100 to 1000 nM for the first, 100 to 1000 nM for the second.

First: CNC(=O)c1cccc(F)c1Nc1nc(Nc2ccc3c(c2)N(C(C)C)C(=O)CCC3(C)C)ncc1Cl [Example 1588, 2-[5-Chloro-2-(1-isopropyl-5,5-dimethyl-2-oxo-2,3,4,5-tetrahydro-1H-benzo[b]azepin-8-ylamino)-pyrimidin-4-ylamino]-3-fluoro-N-methyl-benzamide]
Second: CNC(=O)c1cccc(F)c1Nc1nc(Nc2ccc3c(c2)OCCCN3)ncc1Cl [Example 1723, 2-[5-Chloro-2-(6,7,8,9-tetrahydro-5-oxa-9-aza-benzocyclohepten-3-ylamino)-pyrimidin-4-ylamino]-3-fluoro-N-methyl-benzamide]
The IC50 of the first is lower: < 100 nM for the first, 100 to 1000 nM for the second.

First: CNC(=O)c1cccc(F)c1Nc1nc(Nc2ccc3c(c2)OCCCN3C(=O)CN2CCCC2)ncc1Cl [Example 1714, 2-{5-Chloro-2-[9-(2-pyrrolidin-1-yl-acetyl)-6,7,8,9-tetrahydro-5-oxa-9-aza-benzocyclohepten-3-ylamino]-pyrimidin-4-ylamino}-3-fluoro-N-methyl-benzamide]
Second: CNC(=O)c1cccc(F)c1Nc1nc(Nc2ccc3c(c2)OCCCN3CCN2CCCC2)ncc1Cl [Example 1718, 2-{5-Chloro-2-[9-(2-pyrrolidin-1-yl-ethyl)-6,7,8,9-tetrahydro-5-oxa-9-aza-benzocyclohepten-3-ylamino]-pyrimidin-4-ylamino}-3-fluoro-N-methyl-benzamide]
The IC50 of the first is higher: 100 to 1000 nM for the first, < 100 nM for the second. The second is the more potent here.
